Measured values: patent US20240343761A1, “APELINERGIC MACROCYCLES AND USES THEREOF” (priority 2021, published 2024)
Where two headings read alike, the source gives them in different places. Numbered stars: 1 amine (or outer) side, 2 acyl side, 3 side chain; on linkers, the order of the positions; unused ones are H or OH. Bridge positions count the residues as written; N and C are the ends. Square brackets hold non-standard residues; d marks the D form. Peptide text beside a SMILES is read from it. * marks the point of attachment. X3 = O=C([C@H](CCCCNCCC=[*:3])N[*:1])[*:2]; X9 = O=C([C@H](CCCNCCC=[*:3])N[*:1])[*:2]; Phe(4-Br) = N[C@@H](Cc1ccc(Br)cc1)C(=O)O; X2 = Cc1ccc2nc(-c3ccc(N*)cc3)sc2c1; AllylGly = C=CC[C@H](N)C(=O)O; pGlu = O=C1CC[C@@H](C(=O)O)N1; Nle = CCCC[C@H](N)C(=O)O; Ava = NCCCCC(=O)O; Bn = c1ccc(C*)cc1

Legend:
human APJ (hAPJ) = molecular target: T1, human APJ (hAPJ) (Homo sapiens, UniProt P35414); test: Competitive radioligand binding ([125I][Nle75,Tyr77][Pyr1]-Ape13) on membranes of HEK293 cells stably expressing human APJ
T1 construct: expressed in transfected cells; cell membranes
T1 sequence (P35414 1-380): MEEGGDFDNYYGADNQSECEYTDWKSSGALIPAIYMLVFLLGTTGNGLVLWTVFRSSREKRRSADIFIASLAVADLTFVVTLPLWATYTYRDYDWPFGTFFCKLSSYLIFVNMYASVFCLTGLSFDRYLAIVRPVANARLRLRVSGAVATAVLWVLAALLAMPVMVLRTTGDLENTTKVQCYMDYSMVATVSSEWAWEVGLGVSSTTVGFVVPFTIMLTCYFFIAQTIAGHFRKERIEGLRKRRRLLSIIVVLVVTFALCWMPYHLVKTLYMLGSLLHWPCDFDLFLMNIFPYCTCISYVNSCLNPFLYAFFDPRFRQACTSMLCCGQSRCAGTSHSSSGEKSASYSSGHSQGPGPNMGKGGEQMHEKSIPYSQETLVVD
Method: HEK293 cells stably expressing YFP-tagged human APJ were cultured in DMEM medium supplemented with 10% FBS, at 37° C. under a humid atmosphere maintaining 5% CO2. Antibiotic G418 (400 μg/mL) was added to maintain a selection pressure for APJ-expressing cells while penicillin/streptomycin (0.1%) were used to prevent bacterial contamination.
Binding experiments were performed on cell membranes of HEK293 stably expressing the YFP-tagged human APJ receptor. Cells were frozen at −80° C. for storage and quickly thawed right before the experiments (1 min at 37° C.). […] The precipitate (cell membranes) was suspended in binding buffer (50 mM Tris-HCl, 0.2% BSA, pH 7.4). Binding assays were run in 96-well plates. […] (820 Ci/mmol)^3 and test ligand with a range of concentrations from 10^−1 to 10^−11 M in a total volume of 200 μL for 1 h at room temperature.
The incubation mixtures were filtered through a glass fiber filter (Millipore, pre-absorbed of PEI 0.5% for 2 h at 4° C.) to remove unbound ligands, and the filter membranes were washed three times with 170 μL cold binding buffer (4° C.). The γ emission was measured using a 1470 Wizard γ-counter from PerkinElmer (Waltham, USA) (80% efficiency).

hAPJ receptor [1] = molecular target: T2, hAPJ receptor (Homo sapiens, UniProt P35414); test: BRET-based Gαi1 activation assay in HEK293 cells; type: cell-based
T2 construct: expressed in transfected cells; host or cells: HEK293, transient transfection with PEI
T2 sequence (P35414 1-380): T1 sequence (P35414 1-380)
Method: (§1) HEK293 cells were cultivated in high glucose DMEM medium having 10% FBS, 100 U/mL penicillin/streptomycin, 2 mM glutamine, and 20 mM HEPES at 37° C. in T175 flasks under humidified chamber at 5% CO2. […] Cells were then washed with phosphate-buffered saline (PBS) and 90 μL Hanks' balanced salt solution was added in each well. Then, cells were stimulated with analogs at concentrations ranging from 10^−5 M to 10^−11 M for 5 min at 37° C. (Gαi1) or for 30 min at room temperature (β-arrestin2). After stimulation, 5 μM of coelanterazine 400A was added to each well and the plate was read using the BRET^2 filter set of a GeniosPro plate reader (Tecan, Austria). The BRET ratio was determined as GFP10em/RlucIIem. Data were plotted and EC50 values were determined using GraphPad Prism 8. Each data point represents the mean±SEM of at least three different experiments each done in triplicate.

hAPJ receptor [2] = molecular target: T2, hAPJ receptor; test: BRET-based β-arrestin2 recruitment assay in HEK293 cells; type: cell-based
Method: as §1

[3] = Rat plasma stability (half-life in vitro); type: in vitro ADME; details: male, Sprague-Dawley, rat, plasma, Table I, rat plasma, 37° C., up to 24 h; for half-life at […]: read-out: Half-life in vitro (converted)
Method: Plasma was obtained from male Sprague-Dawley rats by collecting blood in heparin tube and centrifugating at 13,000 rpm to remove blood cells. The isolated plasma was stored at −80° C. and thawed right before the test. In 96-well plate, 6 μL of peptide solution at 1 mM was incubated with 27 μL of plasma at 37° C. in an oven equipped with orbital shaker. Tightly fitted caps were used to seal the wells to avoid water evaporation during incubation. […] A 96-well UPLC plate was put at the bottom to collect the samples. Both plates were centrifuged at 500 g for 10 min at 4° C. to accelerate the filtration. […] The quantity of remaining peptide was plotted into an exponential one-phase decay curve using GraphPad Prism 8 which allowed to calculate peptide half-life. The results were presented as mean±SEM of at least 3 independent experiments, each done in simplicate.
The percentage of remaining analogue was calculated by doing the ratio between AU of compound and AUC of internal standard. Half-lives were extrapolated from curves.

Compound: CCCC[C@H](NC(=O)[C@@H]1CCCN1C(=O)CNC(=O)[C@H](CCCCN)NC(=O)[C@@H]1CCCC[C@H](NC(=O)[C@H](CCCNC(=N)N)NC(=O)[C@@H]2CCC(=O)N2)C(=O)N[C@@H](CCCNC(=N)N)C(=O)N[C@@H](CC(C)C)C(=O)N[C@@H](CO)C(=O)N1)C(=O)N1CCC[C@H]1C(=O)N[C@@H](Cc1ccccc1)C(=O)O [Compound 13, Pyr-R-c*[X-R-L-S-X]c-K-G-P-Nle-P-F]
- Ki (human APJ (hAPJ); Table I, mean ± SEM, read-out: Ki binding): 4.3 ± 0.3 nM
- Ki (human APJ (hAPJ); Table V, read-out: Binding Ki): 4.3 ± 0.3 nM
- Emax (hAPJ receptor [1]; HEK293, Table V, read-out: Gαi1 Emax): 102%
- Emax (hAPJ receptor [2]; HEK293, Table V, read-out: ß-arr2 Emax): 75%
- EC50 (hAPJ receptor [2]; Table I, read-out: EC50 β-arr2): 199 ± 65 nM
- EC50 (hAPJ receptor [2]; Table V, read-out: ß-arr2 EC50): 199 ± 65 nM

Compound: CCCC[C@H](NC(=O)[C@@H]1CCCN1C(=O)CNC(=O)[C@H](CCCCN)NC(=O)[C@@H]1CC(=O)NC[C@H](NC(=O)[C@H](CCCNC(=N)N)NC(=O)[C@@H]2CCC(=O)N2)C(=O)N[C@@H](CCCNC(=N)N)C(=O)N[C@@H](CC(C)C)C(=O)N[C@@H](CO)C(=O)N1)C(=O)N1CCC[C@H]1C(=O)N[C@@H](Cc1ccccc1)C(=O)O [Compound 14, Pyr-R-c[Dap-R-L-S-Asp]c-K-G-P-Nle-P-F]
- half-life at 0.182 mM [3]: 0.2 ± 0.1 h

Compound: CCCC[C@H](NC(=O)[C@@H]1CCCN1C(=O)CNC(=O)[C@H](CCCCN)NC(=O)[C@@H]1CC(=O)NCCCC[C@H](NC(=O)[C@H](CCCNC(=N)N)NC(=O)[C@@H]2CCC(=O)N2)C(=O)N[C@@H](CCCNC(=N)N)C(=O)N[C@@H](CC(C)C)C(=O)N[C@@H](CO)C(=O)N1)C(=O)N1CCC[C@H]1C(=O)N[C@@H](Cc1ccccc1)C(=O)O [Compound 17, Pyr-R-c[Lys-R-L-S-Asp]c-K-G-P-Nle-P-F] ([pGlu]RKRLSDKGP[Nle]PF-OH; lactam 3-7)
- half-life at 0.182 mM [3]: 0.1 h

Compound: CCCC[C@H](NC(=O)[C@@H]1CCCN1C(=O)CNC(=O)[C@H](CCCCN)NC(=O)[C@@H]1CC=CCCC(=O)N[C@@H](CCCNC(=N)N)C(=O)N[C@@H](CC(C)C)C(=O)N[C@@H](CO)C(=O)N1)C(=O)N1CCC[C@H]1C(=O)N[C@@H](Cc1ccccc1)C(=O)O [Compound 22, Ø-c[X-R-L-S-X]c-K-G-P-Nle-P-F]
- half-life at […] [3]: 2 ± 0.2 h

Compound: CCCC[C@@H]1NC(=O)[C@@H](N)CC=CC[C@@H](C(=O)N[C@@H](CCCCN)C(=O)NCC(=O)N2CCC[C@H]2C(=O)N[C@@H](CCCC)C(=O)N2CCC[C@H]2C(=O)N[C@@H](Cc2ccccc2)C(=O)O)NC(=O)[C@H](CO)NC(=O)[C@H](CC(C)C)NC1=O [Compound 24, NH2-c[X-Nle-L-S-X]c-K-G-P-Nle-P-F]
- half-life at […] [3]: 3.8 ± 0.5 h

Compound: CCCC[C@H](NC(=O)[C@@H]1CCCN1C(=O)CNC(=O)[C@H](CCCCN)NC(=O)[C@@H]1Cc2cncn2CC=CC[C@H](N)C(=O)N[C@@H](CCCNC(=N)N)C(=O)N[C@@H](CC(C)C)C(=O)N[C@@H](CO)C(=O)N1)C(=O)N1CCC[C@H]1C(=O)N[C@@H](Cc1ccccc1)C(=O)O [Compound 25, NH2-c[X-R-L-S-Alh]c-K-G-P-Nle-P-F]
- half-life at 0.182 mM [3]: 2 ± 0.3 h

Compound: CCCC[C@H](NC(=O)[C@@H]1CCCN1C(=O)CCCCNC(=O)[C@@H]1CC=CC[C@H](N)C(=O)N[C@@H](CCCNC(=N)N)C(=O)N[C@@H](CC(C)C)C(=O)N[C@@H](CO)C(=O)N1)C(=O)O [Compound 32, NH2-c[X-R-L-S-X]c-5Ava-P-Nle] (H-[AllylGly]RLS[AllylGly][Ava]P[Nle]-OH; staple 1-5)
- Ki (human APJ (hAPJ); Ki binding): > 10000 nM

Compound: CC(C)C[C@@H]1NC(=O)[C@H](CCCNC(=N)N)NC(=O)[C@@H](N)CC=CC[C@@H](C(=O)N[C@@H](CCCCN)C(=O)NCC(=O)N2CCC[C@H]2C(=O)N[C@@H](Cc2cccc3ccccc23)C(=O)O)NC(=O)[C@H](CO)NC1=O [Compound 35, NH2-c[X-R-L-S-X]c-K-G-P-1Nal]
- half-life at 0.182 mM [3]: 0.3 ± 0.1 h

Compound: N=C(N)NCCC[C@@H]1NC(=O)[C@@H](N)CC=CCCNCCC[C@@H](C(=O)N2CCC[C@H]2C(=O)N[C@@H](Cc2ccc(OCc3ccccc3)cc2)C(=O)O)NC1=O [Compound 51, NH2-c[X-R-Orn(N-butenyl)]-P-Tyr(Obn)] (H-[AllylGly]R[X9]PY(Bn)-OH; staple 1-3)
- Ki (human APJ (hAPJ); Ki binding): > 10000 nM

Compound: N=C(N)NCCC[C@H](N)C(=O)N[C@H]1CCCCNCCC=CC[C@@H](C(=O)N[C@H](Cc2ccc(OCc3ccccc3)cc2)C(=O)O)NC(=O)[C@@H]2CCCN2C1=O [Compound 57, NH2-R-c[K(N-butenyl)-P-X]-(D-Tyr(Obn))] (H-R[X3]P[AllylGly][dY](Bn)-OH; staple 2-4)
- Ki (human APJ (hAPJ); Ki binding): > 10000 nM

Compound: N=C(N)NCCC[C@H](N)C(=O)N[C@H]1CCCCNC(=O)CC[C@@H](C(=O)N[C@@H](Cc2ccc(OCc3ccccc3)cc2)C(=O)O)NC(=O)[C@@H]2CCCN2C1=O [Compound 58, NH2-R-c[K-P-E]-Tyr(Obn)] (H-RKPEY(Bn)-OH; lactam 2-4)
- Ki (human APJ (hAPJ); Ki binding): > 10000 nM

Compound: CC(=O)N[C@@H](CCCCN)C(=O)N[C@@H](Cc1ccccc1)C(=O)N[C@@H](CCCNC(=N)N)C(=O)N[C@@H](CCCNC(=N)N)C(=O)N[C@@H](CCC(N)=O)C(=O)N[C@@H](CCCNC(=N)N)C(=O)N1CCC[C@H]1C(=O)N[C@@H](CCCNC(=N)N)C(=O)N[C@@H](CC(C)C)C(=O)N[C@H]1CCC(=O)NCCCC[C@@H](C(=O)N2CCC[C@H]2C(=O)N[C@@H](C)C(=O)N2CCC[C@H]2C(=O)N[C@@H](Cc2ccccc2)C(=O)O)NC(=O)[C@H](C)NC(=O)[C@H](Cc2c[nH]cn2)NC1=O [Compound 62, Ac-K-F-R-R-Q-R-P-R-L-[E-H-A-K]-P-A-P-F] (Ac-KFRRQRPRLEHAKPAPF-OH; lactam 10-13)
- Ki (human APJ (hAPJ); Ki binding): 11 ± 7 nM
- EC50 (hAPJ receptor [2]): 1260 nM

Compound: CCCC[C@H](NC(=O)[C@@H]1CCCN1C(=O)[C@@H]1CCCCNC(=O)CC[C@H](NC(=O)[C@H](CC(C)C)NC(=O)[C@H](CCCNC(=N)N)NC(=O)[C@@H]2CCCN2C(=O)[C@H](CCCNC(=N)N)NC(=O)[C@H](CCC(N)=O)NC(=O)[C@H](CCCNC(=N)N)NC(=O)[C@H](CCCNC(=N)N)NC(=O)[C@H](Cc2ccccc2)NC(=O)[C@H](CCCCN)NC(C)=O)C(=O)N[C@@H](Cc2c[nH]cn2)C(=O)N[C@@H](CCCCN)C(=O)N1)C(=O)N1CCC[C@H]1C(=O)N[C@@H](CC(=O)Nc1ccc(-c2nc3ccc(C)cc3s2)cc1)C(=O)O [Compound 68, Ac-K-F-R-R-Q-R-P-R-L-[E-H-K-K]-P-Nle-P-B2] (Ac-KFRRQRPRLEHKKP[Nle]PD(X2)-OH; lactam 10-13)
- Ki (human APJ (hAPJ); Ki binding): 4 ± 1 nM

Compound: CC(C)C[C@@H]1NC(=O)[C@@H]2CCCN2C(=O)[C@@H](NC(=O)[C@H](CO)NC(=O)[C@H](CCCNC(=N)N)NC(=O)[C@H](CCCNC(=N)N)NC(=O)[C@@H]2CCC(=O)N2)CCC(=O)NCCCC[C@@H](C(=O)N[C@@H](CCCNC(=N)N)C(=O)N[C@H](C(=O)N2CCC[C@H]2C(=O)N[C@@H](Cc2ccc(Br)cc2)C(=O)N2CCC[C@H]2C(=O)O)C(C)C)NC(=O)[C@H](Cc2c[nH]cn2)NC1=O [Compound 92, Pyr-R-R-S-[E-P-L-H-K]-R-V-P-4BrF-P] ([pGlu]RRSEPLHKRVP[Phe(4-Br)]P-OH; lactam 5-9)
- Ki (human APJ (hAPJ); Binding Ki): 15 ± 2 nM
- EC50 (hAPJ receptor [1]): 16 ± 3 nM
- EC50 (hAPJ receptor [2]): 439 ± 91 nM
